This test deals with T1, human ENT1 (Homo sapiens, UniProt Q99808).
T1 sequence (Q99808 1-456): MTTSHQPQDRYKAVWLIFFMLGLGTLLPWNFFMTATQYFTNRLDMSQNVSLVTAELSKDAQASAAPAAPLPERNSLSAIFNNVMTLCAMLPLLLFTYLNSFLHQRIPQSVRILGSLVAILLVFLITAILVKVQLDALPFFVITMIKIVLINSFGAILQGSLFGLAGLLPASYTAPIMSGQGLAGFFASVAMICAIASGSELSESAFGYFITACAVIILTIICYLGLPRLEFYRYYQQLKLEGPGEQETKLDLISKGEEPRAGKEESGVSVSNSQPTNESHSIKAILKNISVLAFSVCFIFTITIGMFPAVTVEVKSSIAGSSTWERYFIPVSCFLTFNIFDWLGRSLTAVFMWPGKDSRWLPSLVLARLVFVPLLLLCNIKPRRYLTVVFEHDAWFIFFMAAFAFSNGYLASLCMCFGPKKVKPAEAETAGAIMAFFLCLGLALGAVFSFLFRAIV
Put plainly: ENT1 binding assay (competition with Sahenta-DY647 on JAR cells). On the set-up: JAR cells expressing ENT1 were bought from ATCC; host or cells: JAR cells. Conditions: binned IC50. The method, boiled down:
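JAR cells were incubated with test compounds and the fluorescent ligand Sahenta-DY647 in competition. Plates were washed twice by centrifugation (4 min, 400 rcf, 4 °C). Binding potency was derived from the final fluorescence.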
One may read the IC50 as the concentration at which inhibition is half-maximal. A high value points to a need for much substance. `CCOCCCNc1nc(N(CCOC)CCOC)nc2c(N3CCC(OC)CC3)nc(N(CCOC)CCOC)nc12` [Compound 52, N4-(3-ethoxypropyl)-N2,N2,N6,N6-tetrakis(2-methoxyethyl)-8-(4-methoxypiperidin-1-yl)pyrimido[5,4-d]pyrimidine-2,4,6-triamine] gave an IC50 of 0.5 to 1 µM.
As for `COCCN(CCOC)c1nc(N2CCC(OC)CC2)c2nc(N(CCOC)CCOCCCN3CCN(C)CC3)nc(N3CCC(OC)CC3)c2n1` [Compound 16, N2,N2,N6-tris(2-methoxyethyl)-4,8-bis(4-methoxypiperidin-1-yl)-N6-(2-(3-(4-methylpiperazin-1-yl)propoxy)ethyl)pyrimido[5,4-d]pyrimidine-2,6-diamine], the figure is 0.5 to 1 µM; as for `COCCN(CCOC)c1nc(N2CCN(C)C(=O)C2)c2nc(N(CCOC)CCOC)nc(NCc3ccc(F)c(F)c3)c2n1` [Compound 213, 4-(2,6-bis(bis(2-methoxyethyl)amino)-8-((3,4-difluorobenzyl)amino)pyrimido[5,4-d]pyrimidin-4-yl)-1-methylpiperazin-2-one], less than 0.1 µM.
As for `COCCN(CCOC)c1nc(N2CCC(OC)CC2)c2nc(N(CCOC)CCOC)nc(NCc3cccc(-n4cccn4)c3)c2n1` [Compound 146, N4-(3-(1H-pyrazol-1-yl)benzyl)-N2,N2,N6,N6-tetrakis(2-methoxyethyl)-8-(4-methoxypiperidin-1-yl)pyrimido[5,4-d]pyrimidine-2,4,6-triamine], the figure is 0.1 to 0.5 µM; as for `COCCN(CCOC)c1nc(N2CCn3ncnc3C2)c2nc(N(CCOC)CCOC)nc(N3CCN(C)C(=O)C3)c2n1` [Compound 5, 4-(2,6-bis(bis(2-methoxyethyl)amino)-8-(5,6-dihydro-[1,2,4]triazolo[1,5-a]pyrazin-7(8H)-yl)pyrimido[5,4-d]pyrimidin-4-yl)-1-methylpiperazin-2-one], less than 0.1 µM; as for `COCCN(CCOC)c1nc(N2C[C@@H](C)O[C@@H](C)C2)c2nc(N(CCOC)CCOC)nc(N3CCC(OC)CC3)c2n1` [Compound 110, 4-((2R,6S)-2,6-dimethylmorpholino)-N2,N2,N6,N6-tetrakis(2-methoxyethyl)-8-(4-methoxypiperidin-1-yl)pyrimido[5,4-d]pyrimidine-2,6-diamine], less than 0.1 µM.
As for `COCCN(CCOC)c1nc(N2CCS(=O)(=O)CC2)c2nc(N(CCOC)CCOC)nc(N3CCN(c4ncn(C)n4)CC3)c2n1` [Compound 217, 4-(2,6-bis(bis(2-methoxyethyl)amino)-8-(4-(1-methyl-1H-1,2,4-triazol-3-yl)piperazin-1-yl)pyrimido[5,4-d]pyrimidin-4-yl)thiomorpholine 1,1-dioxide], the figure is 0.1 to 0.5 µM; as for `COCCN(CCOC)c1nc(N2CCOC(C)C2)c2nc(N(CCOC)CCOC)nc(N3CCC(OC)CC3)c2n1` (stereo not shown) [Compound 113, N2,N2,N6,N6-tetrakis(2-methoxyethyl)-4-(4-methoxypiperidin-1-yl)-8-(2-methylmorpholino)pyrimido[5,4-d]pyrimidine-2,6-diamine], 0.1 to 0.5 µM; as for `COCCN(CCOC)c1nc(N2CCN(C)C(=O)C2)c2nc(N3CCN(S(C)(=O)=O)CC3)nc(N3CCC(OC)CC3)c2n1` [Compound 279, 4-(2-(bis(2-methoxyethyl)amino)-8-(4-methoxypiperidin-1-yl)-6-(4-(methylsulfonyl)piperazin-1-yl)pyrimido[5,4-d]pyrimidin-4-yl)-1-methylpiperazin-2-one], 0.1 to 0.5 µM.
The compound `COCCN(CCOC)c1nc(N2CCN(C)C(=O)C2)c2nc(N(CCOC)Cc3cc(OC)c(OC)c(OC)c3)nc(N3CCC(OC)CC3)c2n1` [Compound 269, 4-(2-(bis(2-methoxyethyl)amino)-6-((2-methoxyethyl)(3,4,5-trimethoxybenzyl)amino)-8-(4-methoxypiperidin-1-yl)pyrimido[5,4-d]pyrimidin-4-yl)-1-methylpiperazin-2-one] returned a concentration for half-maximal inhibition (IC50) of less than 0.1 µM.
As for `COCCN(CCOC)c1nc(N2CCN(c3ncn(C)n3)CC2)c2nc(N(CCOC)CCOC)nc(N(C)Cc3ccc(F)c(C#N)c3)c2n1` [Compound 245, 5-(((2,6-bis(bis(2-methoxyethyl)amino)-8-(4-(1-methyl-1H-1,2,4-triazol-3-yl)piperazin-1-yl)pyrimido[5,4-d]pyrimidin-4-yl)(methyl)amino)methyl)-2-fluorobenzonitrile], the figure is 0.5 to 1 µM.
As for `COCCN(CCOC)c1nc(N2CCC(OC)CC2)c2nc(N(CCOC)CCOCCN3C(=O)c4ccccc4C3=O)nc(N3CCC(OC)CC3)c2n1` [Compound 172, 2-(2-(2-((6-(bis(2-methoxyethyl)amino)-4,8-bis(4-methoxypiperidin-1-yl)pyrimido[5,4-d]pyrimidin-2-yl)(2-methoxyethyl)amino)ethoxy)ethyl)isoindoline-1,3-dione], the figure is 0.1 to 0.5 µM; as for `CCN1CCN(c2nc(N(CCOC)CCOC)nc3c(N4CCC(OC)CC4)nc(N(CCOC)CCOC)nc23)CC1=O` [Compound 198, 4-(2,6-bis(bis(2-methoxyethyl)amino)-8-(4-methoxypiperidin-1-yl)pyrimido[5,4-d]pyrimidin-4-yl)-1-ethylpiperazin-2-one], 0.1 to 0.5 µM; as for `COCCN(CCOC)c1nc(N2CCC(OC)CC2)c2nc(N(CCOC)CCOC)nc(NCC3CCCC3)c2n1` [Compound 55, N4-(cyclopentylmethyl)-N2,N2,N6,N6-tetrakis(2-methoxyethyl)-8-(4-methoxypiperidin-1-yl)pyrimido[5,4-d]pyrimidine-2,4,6-triamine], 0.1 to 0.5 µM.
As for `COCCN(CCOC)c1nc(N2CCC(OC)CC2)c2nc(OCc3ccnc(C)c3)nc(N3CCC(OC)CC3)c2n1` [Compound 262, N,N-bis(2-methoxyethyl)-4,8-bis(4-methoxypiperidin-1-yl)-6-((2-methylpyridin-4-yl)methoxy)pyrimido[5,4-d]pyrimidin-2-amine], the figure is 0.1 to 0.5 µM; as for `COCCN(CCOC)c1nc(N2CCC(F)(F)CC2)c2nc(N(CCO)CCO)nc(N3CCC(F)(F)CC3)c2n1` [Compound 19, 2,2′-((6-(bis(2-methoxyethyl)amino)-4,8-bis(4,4-difluoropiperidin-1-yl)pyrimido[5,4-d]pyrimidin-2-yl)azanediyl)diethanol], 0.1 to 0.5 µM; as for `CCOC(=O)C1CCN(c2nc(N(CCOC)CCOC)nc3c(N4CCC(C(=O)OCC)CC4)nc(N(CCO)CCO)nc23)CC1` [Compound 14, diethyl 1,1′-(2-(bis(2-hydroxyethyl)amino)-6-(bis(2-methoxyethyl)amino)pyrimido[5,4-d]pyrimidine-4,8-diyl)bis(piperidine-4-carboxylate)], 0.5 to 1 µM.
Compound `COCCN(CCOC)c1nc(N2CCc3cn[nH]c3C2)c2nc(N(CCOC)CCOC)nc(N3CCN(C)C(=O)C3)c2n1` [Compound 259, 4-(2,6-bis(bis(2-methoxyethyl)amino)-8-(1,4,5,7-tetrahydro-6H-pyrazolo[3,4-c]pyridin-6-yl)pyrimido[5,4-d]pyrimidin-4-yl)-1-methylpiperazin-2-one] had an IC50 of less than 0.1 µM.
As for `COCCN(CCOC)c1nc(N2CCC(OC)C2)c2nc(N(CCOC)CCOC)nc(N3CCC(OC)CC3)c2n1` (stereo not shown) [Compound 80, N2,N2,N6,N6-tetrakis(2-methoxyethyl)-4-(4-methoxypiperidin-1-yl)-8-(3-methoxypyrrolidin-1-yl)pyrimido[5,4-d]pyrimidine-2,6-diamine], the figure is 0.1 to 0.5 µM.

The record behind these values is patent US20230146675A1, “PYRIMIDO[5,4-d]PYRIMIDINE DERIVATIVES AS ENT INHIBITORS FOR THE TREATMENT OF CANCERS, AND COMBINATION THEREOF WITH ADENOSINE RECEPTOR ANTAGONISTS” (ITEOS BELGIUM SA, priority 2020, published 2023).
